Measurements as given in patent US20210369155A1, “Analyte Sensors and Sensing Methods for Detecting Inhibitors of Diaphorase” (Abbott Diabetes Care Inc., priority 2020, published 2021).

Columns and labels:
Diaphorase [1] = assay: Inhibition of diaphorase by dicoumarol: NADH and dicoumarol titrated into PBS exposed to diaphorase-coated carbon working electrodes; assay type: biochemical
Experimental: (§1) Example 1: Inhibition of Diaphorase by Dicoumarol. For this example, the spotting formulations shown in Table 1 below were coated onto separate carbon working electrodes. A micro-syringe was use to deposit 35 nL of each formulation as a single spot having an area of around 0.2 mm^2 upon separate carbon working electrodes. Following deposition, the working electrodes were cured overnight at 25° C.
The electrodes were exposed to fresh phosphate buffered saline (PBS) solutions, and varying amounts of NADH and dicoumarol were then titrated into the buffered solutions. No glucose or GDH was added to “power” the sensors and complete the enzyme system specified above (FIG. 3B). […] To the buffered solution containing 30 μM NADH was then titrated dicoumarol up to a concentration of 100 μM. […] FIG. 10 is a graph showing the results of titrating NADH and dicoumarol (DCM) into PBS solutions exposed to the analyte sensors of Example 1 (Sensors 1-4). […] A higher signal resulted for Sensor 2 as a result of its higher concentration of diaphorase. Given the goal of making the sensor response to be diaphorase limited, further optimization work centered around optimizing the sensor response at a low-concentration loading of the diaphorase. […]

Diaphorase [2] = assay: Detection of dicoumarol with sensors whose active area holds glucose dehydrogenase, NAD and rate-limiting diaphorase: glucose and dicoumarol titrated into PBS; assay type: biochemical; details: Sensors 5-8; PBS with 500 μM NAD, glucose up to 50 μM; DCM titrated up to 160 μM
Experimental: as §1, with “2: Detection” for “1: Inhibition”, “Dicoumarol Using an Analyte Sensor Having an Active Area with Glucose Dehydrogenase and a Rate-Limited Electron Transfer to the Working Electrode.” for “Diaphorase by Dicoumarol.”, “2” for “1”
Glucose and dicoumarol were then titrated to PBS solutions in which the sensors were immersed. A 500 μM quantity of NAD was first added to the buffer solution, followed by three additions of glucose up to 50 μM. Thereafter, dicoumarol (DCM) was titrated up to 160 μM. FIGS. 14A and 14B are graphs showing the results of titrating glucose and dicoumarol (DCM) into PBS solutions exposed to electrodes having variable amounts of NAD-dependent glucose dehydrogenase in an active area thereon. […] As shown, increasing amounts of glucose dehydrogenase increased the signal response during glucose addition and during DCM addition.

normalized sensor response as a function of dicoumarol concentration (FIGS. 11A, 11B, 13) (Diaphorase [1]; 0.2 mg/mL diaphorase, 0.4 mg/mL electron transfer agent, NADH titrated up to 160 μM): strong inhibition
sensor signal as the dicoumarol concentration increased (FIG. 10) (Diaphorase [1]; only Sensors 2 and 4 (0.4 mg/mL Formula 1 polymer), PBS with 30 μM NADH, dicoumarol titrated up to 100 μM, no glucose or GDH): sudden and sensitive decrease in signal
Structure (SMILES): O=c1oc2ccccc2c(O)c1Cc1c(O)c2ccccc2oc1=O [dicoumarol]
sensor current response during DCM addition (FIGS. 14A, 14B) (Diaphorase [2]): response decreased as increasing amounts of DCM were added
